Literature values, collected in US11672781B2, “Metaxalone formulations” (PRANA BIOSCIENCES INC, priority 2018, dated 2023).

Settings: independent of pH across the physiological pH range found in the GI tract

- Aqueous solubility: less than 50 ug/ml
SMILES: Cc1cc(C)cc(OCC2CNC(=O)O2)c1 (stereo not shown) [metaxalone, 5-[(3,5-dimethylphenoxy)methyl]-2-oxazolidinone]
